In US11766470B2, “Manufacture, formulation and dosing of apraglutide” (VectivBio AG, priority 2020, dated 2023):
Where “and” joins values, the source holds several entries; their conditions need not be identical. Identical values can stand only once. Like-named read-outs stand apart in the source and are kept apart here. Marks after values point to notes of the source that are not given here. Square brackets hold non-standard residues; d marks the D form. Peptide text beside a SMILES is read from it. ξ: configuration not given here. Ile(3ξ) = CCC(C)[C@H](N)C(=O)O; Thr(3ξ) = CC(O)[C@H](N)C(=O)O; Nle = CCCC[C@H](N)C(=O)O

Assays:
[1] = Multiple dose study in healthy volunteers (Examples 4 and 7), pharmacokinetics of plasma apraglutide, non-compartmental analysis; settings: for CL/F / AUC(0-t) / half-life / Cmax / Tmax / Vd/F: human, plasma
Method: 23 healthy adult volunteers received 6 weekly subcutaneous doses of apraglutide (1, 5, or 10 mg) or placebo and were followed for a further 6 weeks after the last dose. Blood collections were controlled for diet, lifestyle, and diurnal effects. […] PK data underwent non-compartmental analysis and PD data were analyzed by ANCOVA.
As with citrulline, a statistical steady-state analysis per dose level was performed for apraglutide using Helmert's approach.

[2] = test system: subjects with severe renal impairment; test: Safety in Phase I renal impairment trial (Example 10); format: in vivo, human; settings: 5 mg single SC dose
Method: The following non-limiting example describes a Phase I clinical trial in which subjects with normal and impaired kidney function are treated with the apraglutide formulations of the present disclosure. This Phase I clinical trial investigates the pharmacokinetics and safety of a single subcutaneous dose of 5 mg apraglutide in subjects with varying degrees of renal function. The renal function is calculated by the estimated glomerular filtration rate (eGFR) according to the Chronic Kidney Disease Epidemiology (CKD-EPI) Creatinine Equation.
The trial is a two-stage, open label, multi-center, non-randomized, Phase I trial. In Part 1 of the trial, 8 subjects with severe renal impairment (Cohort 1) and 6 subjects with normal renal function (Cohort 2) will be administered a single dose 5 mg apraglutide of the present disclosure. In Part 2 of the trial, 8 subjects with moderate renal impairment (Cohort 3) and 8 subjects with mild renal impairment (Cohort 4) will be administered a single dose 5 mg apraglutide of the present disclosure. Subjects will be enrolled if the geometric mean ratio (GMR) of AUCinf or AUClast for the severe renal impairment group compared to the control group is ≥2.
The secondary endpoints to be evaluated, include, but are not limited to: • 1. […] Clinically significant change from baseline in recorded triplicate 12-lead ECG at days 14-28 • 10. […]

[3] = as compared with human GLP-2 and other GLP-2 analogues; cited from earlier work
[4] = Plasma concentration of apraglutide (LC-MS/MS) in Phase 2 SBS-IF trial (Example 5); format: in vivo; settings: human; for level at 168 h: sc, read-out: Mean plasma concentration before the second dose (Ctrough)
Source text: Blood samples for analysis of plasma concentration of apraglutide and fasting plasma L-citrulline, a marker of enterocyte mass, were collected at baseline, during first and second treatment injection, four days after first treatment injection and at the end of treatment.
Apraglutide and L-citrulline were quantified using a validated LC-MS-based method. For apraglutide, the analytical method used solid-phase extraction purification of the intact apraglutide molecule and its internal standard. The compounds were identified and quantified using reversed-phase HPLC with MS/MS detection using an AB Sciex API 5000 quadrupole mass spectrometer. For samples below the limit of quantification of 5.00 ng/mL, compounds were identified and quantified using reversed-phase UHPLC with MS/MS detection using an AB Sciex API 5500 quadrupole mass spectrometer. For L-citrulline, the analytical method used protein precipitation extraction of L-Citrulline and its internal standard. The compounds were identified and quantified using Hilic HPLC with MS/MS detection using an AB Sciex API 5000 quadrupole mass spectrometer.

For CCCC[C@H](NC(=O)[C@H](CCC(=O)O)NC(=O)[C@H](CC(=O)O)NC(=O)[C@H](CO)NC(=O)[C@H](Cc1ccccc1)NC(=O)[C@H](CO)NC(=O)CNC(=O)[C@H](CC(=O)O)NC(=O)CNC(=O)[C@@H](N)Cc1c[nH]cn1)C(=O)N[C@H](Cc1ccccc1)C(=O)N[C@H](C(=O)N[C@H](C(=O)N[C@@H](CC(C)C)C(=O)N[C@@H](CC(=O)O)C(=O)N[C@@H](CC(C)C)C(=O)N[C@@H](CC(C)C)C(=O)N[C@@H](C)C(=O)N[C@@H](C)C(=O)N[C@@H](CCCNC(=N)N)C(=O)N[C@@H](CC(=O)O)C(=O)N[C@@H](Cc1ccccc1)C(=O)N[C@H](C(=O)N[C@@H](CC(N)=O)C(=O)N[C@@H](Cc1c[nH]c2ccccc12)C(=O)N[C@@H](CC(C)C)C(=O)N[C@H](C(=O)N[C@@H](CCC(N)=O)C(=O)N[C@H](C(=O)N[C@@H](CCCCN)C(=O)N[C@H](C(=O)N[C@H](C(=O)N[C@@H](CC(=O)O)C(N)=O)C(C)O)C(C)CC)C(C)O)C(C)CC)C(C)CC)C(C)CC)C(C)O (stereo partly drawn) [apraglutide, L-histidyl-glycyl-L-aspartyl-glycyl-L-seryl-L-phenylalanyl-L-seryl-L-aspartyl-L-glutamyl-L-norleucyl-D-phenylalanyl-L-threonyl-Lisoleucyl-L-leucyl-L-aspartyl-L-leucyl-L-leucyl-L-alanyl-L-alanyl-L-arginyl-L-aspartyl-L-phenylalanyl-L-isoleucyl-L-asparaginyl-Ltryptophanyl-L-leucyl-L-isoleucyl-L-glutaminyl-L-threonyl-L-lysyl-L-isoleucyl-L-threonyl-Laspartic acid amide] (H-HGDGSFSDE[Nle][dF][Thr(3ξ)][Ile(3ξ)]LDLLAARDF[Ile(3ξ)]NWL[Ile(3ξ)]Q[Thr(3ξ)]K[Ile(3ξ)][Thr(3ξ)]D-NH2), the “1st Ctrough, arithmetic mean ± SD” value ([1]; 1 mg) was 0.000 ng/mL and 0.000 ± 0.000 ng/mL, the “4th Ctrough, arithmetic mean ± SD” value ([1]; 1 mg) was 0.873 ng/mL and the “AUCtau, arithmetic mean ± SD” value ([1]; 1 mg, (first dose)) was 35.214 ng·days/mL. The “AUCtau/dose, Arithmetic mean ± standard deviation” value ([1]; 1 mg, (first dose)) was 0.03037 ± 152.1 ng·days/mL/µg, the “AUCtau/dose, Arithmetic mean ± standard deviation” value ([1]; 1 mg, dose #6) was 0.05813 ± 23.1 ng·days/mL/µg and the “4th Ctrough, arithmetic mean ± SD” value ([1]; 5 mg) was 10.163 ng/mL. For the same compound, the “5th Ctrough, arithmetic mean ± SD” value ([1]; 5 mg) was 7.605 ng/mL, the “AUCtau, arithmetic mean ± SD” value ([1]; 5 mg, (first dose)) was 300.269 ng·days/mL and the “AUCtau/dose, Arithmetic mean ± standard deviation” value ([1]; 5 mg, (first dose)) was 0.05407 ± 47.1 ng·days/mL/µg. For the same compound, the “AUCtau/dose, Arithmetic mean ± standard deviation” value ([1]; 5 mg, dose #6) was 0.06595 ± 47.2 ng·days/mL/µg, the “Lambda_Z, Arithmetic mean ± standard deviation” value ([1]; 5 mg, dose #6 (N = 4)) was 0.2384 ± 36.6** 1/d and the “Lambda_Z, arithmetic mean ± SD” value ([1]; 5 mg, dose #6 (N = 4)) was 0.2508 ± 0.09871** 1/d. The “2nd Ctrough, arithmetic mean ± SD” value ([1]; 10 mg) was 18.460 ng/mL, the “6th Ctrough, arithmetic mean ± SD” value ([1]; 10 mg) was 13.710 ng/mL and the “AUCtau, arithmetic mean ± SD” value ([1]; 10 mg, (first dose)) was 476.937 ng·days/mL. The “AUCtau/dose, Arithmetic mean ± standard deviation” value ([1]; 10 mg, (first dose)) was 0.04291 ± 47.6 ng·days/mL/µg, the “Steady-state contrast: mean Ctrough over week 3 to 6 against week 2” value ([1]; 10 mg, Helmert's approach) was −3.616 and the “Lambda_Z, arithmetic mean ± SD” value ([1]; 10 mg, dose #6) was 0.2463 ± 0.09975 day⁻¹. For the same compound, the “AUCtau/dose, Arithmetic mean ± standard deviation” value ([1]; 10 mg, dose #6 (N = 5)) was 0.05288 ± 52.4 ng·days/mL/µg, the “Lambda_Z, Arithmetic mean ± standard deviation” value ([1]; 10 mg, dose #6 (N = 5)) was 0.231 ± 41.3* 1/d and the “Kinetics over the 1 to 10 mg dose range, in words” value ([1]; dose-normalized Cmax and AUCtau) was “follows linear kinetics”. The CL/F ([1]; sc, 1 mg) was 11.9 mL/min, the AUC(0-t) ([1]; sc, 1 mg, AUClast, Arithmetic mean ± standard deviation, dose #6) was 1310 ng·h/mL and the AUC(0-t) ([1]; sc, 1 mg, AUClast, arithmetic mean ± SD, dose #6) was 1360 ng·h/mL. It also gave an AUC(0-t) ([1]; sc, 1 mg, AUCtau, arithmetic mean ± SD, (first dose)) of 845 ng·h/mL, a CL/F ([1]; sc, 5 mg) of 10.5 mL/min and an AUC(0-t) ([1]; sc, 5 mg, AUClast, Arithmetic mean ± standard deviation, dose #6) of 8500 ng·h/mL. For the same compound, the AUC(0-t) ([1]; sc, 5 mg, AUClast, arithmetic mean ± SD, dose #6) was 9170 ng·h/mL, the AUC(0-t) ([1]; sc, 5 mg, AUCtau, arithmetic mean ± SD, (first dose)) was 7210 ng·h/mL and the CL/F ([1]; sc, 10 mg) was 13.1 mL/min. For the same compound, the AUC(0-t) ([1]; sc, 10 mg, AUClast, Arithmetic mean ± standard deviation, dose #6 (N = 5)) was 13800 ng·h/mL, the AUC(0-t) ([1]; sc, 10 mg, AUCtau, arithmetic mean ± SD, (first dose)) was 11400 ng·h/mL and the half-life ([1]; sc, 10 mg, Half-life indicated by PK parameters, healthy volunteers, 6 weekly SC doses of 1, 5 or 10 mg) was 72 h. The Cmax ([1]; subcutaneous, 1 mg, arithmetic mean ± SD, (first dose)) was 13.9 ± 11.2 ng/mL, the Cmax ([1]; subcutaneous, 1 mg, arithmetic mean ± SD, dose #6) was 24.2 ± 9.22 ng/mL and the Cmax ([1]; subcutaneous, 1 mg, geometric mean (geometric coefficient of variation %), (first dose)) was 12.3 ± 146 ng/mL. For the same compound, the Tmax ([1]; subcutaneous, 1 mg, tmax at dose 1 and 6, 1 mg) was roughly 24 h, the Tmax ([1]; subcutaneous, 1 mg, tmax, median, (first dose)) was 24 h and the Tmax ([1]; subcutaneous, 1 mg, tmax, median, dose #6) was 21.6 h. The Vd/F ([1]; subcutaneous, 5 mg) was 50.2 ± 61 L, the Cmax ([1]; subcutaneous, 5 mg, arithmetic mean ± SD, (first dose)) was 94.1 ± 50.5 ng/mL and the Cmax ([1]; subcutaneous, 5 mg, arithmetic mean ± SD, dose #6) was 125 ± 72.1 ng/mL. The Cmax ([1]; subcutaneous, 5 mg, geometric mean (geometric coefficient of variation %), (first dose)) was 84.1 ± 55.1 ng/mL, the Cmax ([1]; subcutaneous, 5 mg, geometric mean (geometric coefficient of variation %), dose #6) was 108 ± 64.6 ng/mL and the half-life ([1]; subcutaneous, 5 mg, Half life, 5 mg, following dose #6) was 72.7 ± 23 h. The half-life ([1]; subcutaneous, 5 mg, t1/2, lower section headed Arithmetic mean ± standard deviation, dose #6 (N = 4)) was 69.8 h, the Tmax ([1]; subcutaneous, 5 mg, tmax at dose 1 and 6, 5 mg) was roughly 24 h and the Tmax ([1]; subcutaneous, 5 mg, tmax, median, (first dose)) was 24 h. It also gave a Tmax ([1]; subcutaneous, 5 mg, tmax, median, dose #6) of 24 h, a Vd/F ([1]; subcutaneous, 10 mg) of 81.9 ± 98.6 L and a Cmax ([1]; subcutaneous, 10 mg, arithmetic mean ± SD, (first dose)) of 137 ± 55 ng/mL. For the same compound, the Cmax ([1]; subcutaneous, 10 mg, arithmetic mean ± SD, dose #6) was 182 ± 97.6 ng/mL, the Cmax ([1]; subcutaneous, 10 mg, geometric mean (geometric coefficient of variation %), (first dose)) was 128 ± 39.9 ng/mL and the half-life ([1]; subcutaneous, 10 mg, Half life, 10 mg, following dose #6) was 76.3 ± 27.6 h. It also gave a half-life ([1]; subcutaneous, 10 mg, t1/2, lower section headed Arithmetic mean ± standard deviation, dose #6 (N = 5)) of 72 h, a Tmax ([1]; subcutaneous, 10 mg, tmax at dose 1 and 6, 10 mg) of roughly 48 h and a Tmax ([1]; subcutaneous, 10 mg, tmax, median, (first dose)) of 45.6 h. For the same compound, the Tmax ([1]; subcutaneous, 10 mg, tmax, median, dose #6) was 45.6 h, the “Safety in patients with severe CKD, in words” value [2] was “safe to dose the patients with severe CKD with apraglutide 5 mg, without the risk of overdose” and the half-life [3] was “at least 30 hours”. The Tmax ([4]; SBS-IF patients, SC, read-out: Time of maximum mean plasma concentration after dosing) was 72 h, the level at 168 h ([4]; 5 mg treatment period) was 4.5 ng/mL and the level at 168 h ([4]; 10 mg treatment period) was 8.9 ng/mL.
